Test results as given in patent US6162417A, “Pyrrolo isoquinolines” (Emory University, priority 1998, dated 2000).
pKi: −log10 of the molar value. Entries after “also recorded” stand apart in the source; their conditions may differ. Where two headings read alike, the source gives them in different places.

Columns and labels:
[1] = target: T1, norepinephrine transporter (Rattus norvegicus, UniProt Q63380); assay: Transporter binding site inhibition in rat brain striatal and cortical membranes - norepinephrine transporter ([3H]desmethylimipramine); settings: vs. [3H]desmethylimipramine, read-out: NE Ki
T1 construct: in rat cortical and striatal homogenates; from tissue; host or cells: rat brain, striatal and cortical homogenates/membranes
Description: (§1) Transporter Binding Site Inhibition Data for Various
(§2) Ligands in Rat Brain Striatial and Cortical Membranes

[2] = target: T2, dopamine transporter (Rattus norvegicus, UniProt P23977); assay: Transporter binding site inhibition in rat brain striatal and cortical membranes - dopamine transporter ([3H]WIN 35428)
T2 construct: in rat cortical and striatal homogenates; from tissue; host or cells: rat brain, striatal and cortical homogenates/membranes
Description: as §1, §2

[3] = target: T3, serotonin transporter (Rattus norvegicus, UniProt P31652); assay: Transporter binding site inhibition in rat brain striatal and cortical membranes - serotonin transporter ([3H]citalopram); settings: for in vitro affinity/selectivity for the serotonin transporter: rat membranes, Table 2
T3 construct: in rat cortical and striatal homogenates; from tissue; host or cells: rat brain, striatal and cortical homogenates/membranes
Description: as §1, §2

[4] = target: T4, human dopamine transporter (Homo sapiens, UniProt Q01959); assay: Binding site inhibition in MDCK cell membranes transfected with human dopamine transporter ([3H]WIN 35428)
T4 construct: expressed in transfected cells; host or cells: MDCK (dog kidney) cells, stably transfected

[5] = target: T5, human serotonin transporter (Homo sapiens, UniProt P31645); assay: Binding site inhibition in HEK-293 cell membranes transfected with human serotonin transporter ([3H]Citalopram); settings: for in vitro affinity/selectivity for transporter sites: human transporters, Table 3
T5 construct: expressed in transfected cells; host or cells: HEK-293, stably transfected

[6] = target: T6, human norepinephrine transporter (Homo sapiens, UniProt P23975); assay: Binding site inhibition in HEK-293 cell membranes transfected with human norepinephrine transporter ([3H]Nisoxetine); settings: HEK-293 cells, human NE transporter; vs. [3H]Nisoxetine
T6 construct: expressed in transfected cells; host or cells: HEK-293, stably transfected
Description: ^2 [^3 H]Nisoxetine as reference/control for norepinephrine

[7] = test system: serotonin transporter; settings: carbon-11 label; cited from earlier work
[8] = rat striatal/cortical membranes, vs. [3H]WIN 35428, read-out: DA Ki
[9] = rat striatal/cortical membranes, vs. [3H]citalopram, read-out: 5-HT Ki
[10] = MDCK cells, human DA transporter, vs. [3H]WIN 35428, read-out: DA Ki
[11] = HEK-293 cells, human serotonin transporter, vs. [3H]Citalopram, read-out: 5-HT Ki

T2 sequence (P23977 whole entry): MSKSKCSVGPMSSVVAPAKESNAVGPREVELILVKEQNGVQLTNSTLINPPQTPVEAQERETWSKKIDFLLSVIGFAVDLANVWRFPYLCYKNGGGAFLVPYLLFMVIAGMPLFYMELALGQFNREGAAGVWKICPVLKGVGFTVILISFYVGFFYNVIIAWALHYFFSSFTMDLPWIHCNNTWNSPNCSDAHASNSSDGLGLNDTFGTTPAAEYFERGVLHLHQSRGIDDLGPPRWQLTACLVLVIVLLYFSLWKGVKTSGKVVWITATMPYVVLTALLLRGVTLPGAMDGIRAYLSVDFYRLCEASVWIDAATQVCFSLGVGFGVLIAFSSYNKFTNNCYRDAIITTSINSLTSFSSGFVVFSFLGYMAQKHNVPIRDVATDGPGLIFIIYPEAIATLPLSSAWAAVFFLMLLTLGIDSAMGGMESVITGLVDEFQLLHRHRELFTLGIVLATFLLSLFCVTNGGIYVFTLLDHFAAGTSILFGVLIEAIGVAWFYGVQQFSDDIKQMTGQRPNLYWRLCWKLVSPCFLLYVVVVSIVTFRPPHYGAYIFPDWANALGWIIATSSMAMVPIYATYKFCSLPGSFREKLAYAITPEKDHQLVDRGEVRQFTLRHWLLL
T5 sequence (P31645 whole entry): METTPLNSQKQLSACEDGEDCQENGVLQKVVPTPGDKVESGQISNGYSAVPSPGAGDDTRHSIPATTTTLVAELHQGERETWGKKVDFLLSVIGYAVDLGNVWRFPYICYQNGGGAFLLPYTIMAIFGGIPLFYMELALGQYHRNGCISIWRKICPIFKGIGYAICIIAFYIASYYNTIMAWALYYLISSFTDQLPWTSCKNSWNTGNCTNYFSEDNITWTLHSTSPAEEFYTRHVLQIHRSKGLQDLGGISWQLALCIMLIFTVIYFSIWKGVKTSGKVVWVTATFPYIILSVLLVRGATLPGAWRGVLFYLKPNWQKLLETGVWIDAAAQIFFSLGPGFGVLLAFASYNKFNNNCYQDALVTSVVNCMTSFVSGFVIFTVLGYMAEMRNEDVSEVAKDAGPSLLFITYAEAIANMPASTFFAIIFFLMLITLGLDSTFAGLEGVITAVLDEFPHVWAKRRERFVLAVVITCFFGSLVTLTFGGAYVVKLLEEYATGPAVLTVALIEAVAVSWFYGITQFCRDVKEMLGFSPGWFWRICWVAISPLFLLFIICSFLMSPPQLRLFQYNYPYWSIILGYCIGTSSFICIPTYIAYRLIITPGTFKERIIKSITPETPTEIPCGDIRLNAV
T3 sequence (P31652 whole entry): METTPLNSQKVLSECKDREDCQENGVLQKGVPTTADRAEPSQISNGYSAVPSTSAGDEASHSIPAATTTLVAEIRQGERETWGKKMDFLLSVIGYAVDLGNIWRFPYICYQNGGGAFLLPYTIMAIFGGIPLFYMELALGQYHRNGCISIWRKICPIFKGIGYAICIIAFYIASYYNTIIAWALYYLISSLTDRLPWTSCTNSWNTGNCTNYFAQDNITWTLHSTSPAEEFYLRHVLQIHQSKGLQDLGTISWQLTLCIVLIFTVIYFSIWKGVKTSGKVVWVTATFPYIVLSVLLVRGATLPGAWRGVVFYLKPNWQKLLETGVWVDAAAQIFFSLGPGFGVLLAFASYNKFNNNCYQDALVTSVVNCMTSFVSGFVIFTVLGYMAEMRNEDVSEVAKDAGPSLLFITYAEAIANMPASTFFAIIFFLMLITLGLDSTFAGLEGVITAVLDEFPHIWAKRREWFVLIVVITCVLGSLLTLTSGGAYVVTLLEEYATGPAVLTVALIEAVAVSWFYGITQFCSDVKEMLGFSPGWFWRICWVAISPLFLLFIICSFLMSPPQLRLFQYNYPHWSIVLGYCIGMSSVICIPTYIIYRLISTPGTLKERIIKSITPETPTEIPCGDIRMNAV
T6 sequence (P23975 whole entry): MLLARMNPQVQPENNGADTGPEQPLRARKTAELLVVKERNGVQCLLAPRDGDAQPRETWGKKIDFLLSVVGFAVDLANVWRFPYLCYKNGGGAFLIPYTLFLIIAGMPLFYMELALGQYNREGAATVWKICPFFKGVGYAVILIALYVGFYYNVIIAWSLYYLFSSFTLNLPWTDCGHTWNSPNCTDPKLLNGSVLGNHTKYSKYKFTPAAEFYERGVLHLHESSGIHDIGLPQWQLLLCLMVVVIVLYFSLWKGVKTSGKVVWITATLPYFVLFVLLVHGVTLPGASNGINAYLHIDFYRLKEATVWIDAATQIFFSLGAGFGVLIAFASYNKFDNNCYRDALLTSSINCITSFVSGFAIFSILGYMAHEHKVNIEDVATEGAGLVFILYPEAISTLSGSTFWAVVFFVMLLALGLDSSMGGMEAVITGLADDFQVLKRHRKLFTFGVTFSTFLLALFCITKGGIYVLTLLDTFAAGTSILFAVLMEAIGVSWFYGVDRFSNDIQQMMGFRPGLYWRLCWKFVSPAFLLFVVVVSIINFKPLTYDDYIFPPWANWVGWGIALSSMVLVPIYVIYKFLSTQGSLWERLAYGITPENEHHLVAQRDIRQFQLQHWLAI
T4 sequence (Q01959 whole entry): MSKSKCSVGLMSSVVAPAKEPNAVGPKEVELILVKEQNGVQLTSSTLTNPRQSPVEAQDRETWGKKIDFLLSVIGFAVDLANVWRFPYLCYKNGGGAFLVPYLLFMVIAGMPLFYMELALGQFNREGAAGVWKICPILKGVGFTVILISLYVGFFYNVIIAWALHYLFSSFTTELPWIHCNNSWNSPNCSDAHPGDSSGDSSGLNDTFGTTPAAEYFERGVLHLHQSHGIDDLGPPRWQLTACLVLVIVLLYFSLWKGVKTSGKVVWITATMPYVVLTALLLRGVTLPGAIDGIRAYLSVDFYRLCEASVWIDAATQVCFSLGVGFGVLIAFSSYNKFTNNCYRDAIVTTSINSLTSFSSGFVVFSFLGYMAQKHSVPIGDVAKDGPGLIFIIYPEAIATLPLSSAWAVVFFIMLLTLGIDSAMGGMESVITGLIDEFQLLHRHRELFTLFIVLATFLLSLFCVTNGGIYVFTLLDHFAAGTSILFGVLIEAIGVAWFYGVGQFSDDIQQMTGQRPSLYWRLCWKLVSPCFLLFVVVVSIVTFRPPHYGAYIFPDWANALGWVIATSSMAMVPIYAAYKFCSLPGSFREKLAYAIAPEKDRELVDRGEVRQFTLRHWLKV
T1 sequence (Q63380 1-617): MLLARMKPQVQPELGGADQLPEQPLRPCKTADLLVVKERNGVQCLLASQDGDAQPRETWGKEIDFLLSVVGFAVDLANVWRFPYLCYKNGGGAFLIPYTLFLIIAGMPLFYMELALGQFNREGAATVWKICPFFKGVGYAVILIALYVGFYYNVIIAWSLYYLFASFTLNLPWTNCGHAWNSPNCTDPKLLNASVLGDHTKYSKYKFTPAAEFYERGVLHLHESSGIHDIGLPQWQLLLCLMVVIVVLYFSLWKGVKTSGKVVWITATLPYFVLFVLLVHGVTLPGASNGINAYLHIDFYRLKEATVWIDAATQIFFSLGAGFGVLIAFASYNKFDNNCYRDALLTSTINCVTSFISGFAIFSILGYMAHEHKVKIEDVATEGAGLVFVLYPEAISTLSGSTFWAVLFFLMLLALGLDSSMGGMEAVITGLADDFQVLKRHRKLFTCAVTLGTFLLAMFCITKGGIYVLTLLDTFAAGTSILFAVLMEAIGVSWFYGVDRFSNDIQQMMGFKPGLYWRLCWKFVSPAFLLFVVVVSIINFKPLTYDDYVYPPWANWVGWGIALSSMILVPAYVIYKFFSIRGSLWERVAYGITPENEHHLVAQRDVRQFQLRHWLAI

| Compound | in vitro affinity/selectivity for the serotonin transporter [3] | pKi [4, 10] | pKi [5] | in vitro affinity/selectivity for transporter sites [5] | pKi [6] | pKi [5, 11] | also measured |
| --- | --- | --- | --- | --- | --- | --- | --- |
| Brc1ccc([C@@H]2CN3CCC[C@@H]3c3ccccc32)cc1 (relative stereo) [compound 5, trans-1,2,3,5,6,10b-hexahydro-6-[4-bromophenyl]pyrrolo-[2,1-a]isoquinoline] | high in vitro affinity for the serotonin transporter |  |  |  |  |  | pKi [1]: 5.62; pKi [2, 8]: 8.02; pKi [3, 9]: 8.29 |
| Ic1ccc([C@@H]2CN3CCC[C@@H]3c3ccccc32)cc1 (relative stereo) [compound 6, trans-1,2,3,5,6,10b-hexahydro-6-[4-iodophenyl]pyrrolo-[2,1-a]isoquinoline] | high in vitro affinity and good selectivity for the serotonin transporter | 9.05 | 9.05 | high affinity for both serotonin and dopamine transporter sites, and is selective for these two sites versus norepinephrine transporter site | 8.00 |  | pKi [1]: 6.02; pKi [2, 8]: 7.85; pKi [3, 9]: 8.64 |
| FC/C=C\c1ccc([C@@H]2CN3CCC[C@@H]3c3ccccc32)cc1 (relative stereo) [compound 19, trans-1,2,3,5,6,10b-hexahydro-6-[4'Z-(3-fluoro-1-propenyl)phenyl]pyrrolo-[2,1-a]isoquinoline] | high affinity for and the most selectivity for the serotonin transporter | 6.66 | 9.00 | high selectivity and affinity for serotonin transporter sites, compared with dopamine transporter site; also recorded: more selective than McN-5652Z for the serotonin transporter site, compared to the dopamine transporter site; also recorded: very high and equal affinity for the serotonin transporter site |  |  | pKi [2]: 6.66; pKi [3]: 8.55 |
| Fc1cccc2c1[C@H]1CCCN1C[C@H]2c1ccc(Br)cc1 (relative stereo) [racemic Br, X = F at position 10] |  | 9.82 |  |  | 8.30 | 8.80 | affinity and selectivity for the dopamine transporter ([4]; human transporters, Table 3): high affinity and selectivity for the dopamine transporter |
| Brc1ccc([C@@H]2CN3CCC[C@@H]3c3ccccc32)cc1 (relative stereo) [racemic Br] |  | 10.15 |  |  | 8.64 | 9.17 |  |
| FCC#Cc1ccc([C@@H]2CN3CCC[C@@H]3c3ccccc32)cc1 (relative stereo) [racemic C=CCH2 F] |  | 7.95 |  |  | 7.62 | 8.07 |  |
| [11CH3]Sc1ccc([C@H]2CN3CCC[C@H]3c3ccccc32)cc1 [Carbon-11 McN-5652Z] |  |  |  |  |  |  | accumulation in brain regions [7]: greatest accumulation in brain regions rich in serotoninergic neurons |
| COC(=O)[C@H]1[C@@H](c2ccc(I)cc2)C[C@@H]2CC[C@H]1N2C [RTI-55 (CIT), reference compound] |  |  |  | high affinity for both serotonin and dopamine transporter sites, and is selective for these two sites versus norepinephrine transporter site | 7.41 | 9.17 | pKi [4]: 9.33 |
| Ic1ccc([C@@H]2CN3CCC[C@@H]3c3ccccc32)cc1 [compound 6, trans (95% ee) (6S, 10bR), (+)-(6S, 10bR)-1,2,3,5,6,10b-hexahydro-6-(4'-iodophenyl)pyrrolo[2,1-a]isoquinoline] |  | 9.05 | 9.05 |  | 8.00 |  |  |
